Data as given in patent US11739078B2, “Methods of inhibiting kinases” (INSILICO MEDICINE IP LIMITED, priority 2019, dated 2023).
Read-outs that look alike come from different tables or passages of the source.

How the values were obtained:
[1] = target: TNIK (Homo sapiens (Human), UniProt Q9UKE5); experiment: TNIK enzymatic assay (radiometric kinase inhibition); type: biochemical
Procedure: The compounds were studied for function as TNIK inhibitors to generate the data of Table 1. […] (specific activity and concentration as required). The reaction is initiated by the addition of the Mg/ATP mix. After incubation for 40 minutes at room temperature, the reaction is stopped by the addition of phosphoric acid to a concentration of 0.5%.

[2] = target: MAP4K4 (h) (Homo sapiens (Human), UniProt O95819); experiment: MAP4K4 in vitro kinase assay (radiometric); type: biochemical; conditions: read-out: MAP4K4_IC50
MAP4K4 (h), sequence (O95819 whole entry): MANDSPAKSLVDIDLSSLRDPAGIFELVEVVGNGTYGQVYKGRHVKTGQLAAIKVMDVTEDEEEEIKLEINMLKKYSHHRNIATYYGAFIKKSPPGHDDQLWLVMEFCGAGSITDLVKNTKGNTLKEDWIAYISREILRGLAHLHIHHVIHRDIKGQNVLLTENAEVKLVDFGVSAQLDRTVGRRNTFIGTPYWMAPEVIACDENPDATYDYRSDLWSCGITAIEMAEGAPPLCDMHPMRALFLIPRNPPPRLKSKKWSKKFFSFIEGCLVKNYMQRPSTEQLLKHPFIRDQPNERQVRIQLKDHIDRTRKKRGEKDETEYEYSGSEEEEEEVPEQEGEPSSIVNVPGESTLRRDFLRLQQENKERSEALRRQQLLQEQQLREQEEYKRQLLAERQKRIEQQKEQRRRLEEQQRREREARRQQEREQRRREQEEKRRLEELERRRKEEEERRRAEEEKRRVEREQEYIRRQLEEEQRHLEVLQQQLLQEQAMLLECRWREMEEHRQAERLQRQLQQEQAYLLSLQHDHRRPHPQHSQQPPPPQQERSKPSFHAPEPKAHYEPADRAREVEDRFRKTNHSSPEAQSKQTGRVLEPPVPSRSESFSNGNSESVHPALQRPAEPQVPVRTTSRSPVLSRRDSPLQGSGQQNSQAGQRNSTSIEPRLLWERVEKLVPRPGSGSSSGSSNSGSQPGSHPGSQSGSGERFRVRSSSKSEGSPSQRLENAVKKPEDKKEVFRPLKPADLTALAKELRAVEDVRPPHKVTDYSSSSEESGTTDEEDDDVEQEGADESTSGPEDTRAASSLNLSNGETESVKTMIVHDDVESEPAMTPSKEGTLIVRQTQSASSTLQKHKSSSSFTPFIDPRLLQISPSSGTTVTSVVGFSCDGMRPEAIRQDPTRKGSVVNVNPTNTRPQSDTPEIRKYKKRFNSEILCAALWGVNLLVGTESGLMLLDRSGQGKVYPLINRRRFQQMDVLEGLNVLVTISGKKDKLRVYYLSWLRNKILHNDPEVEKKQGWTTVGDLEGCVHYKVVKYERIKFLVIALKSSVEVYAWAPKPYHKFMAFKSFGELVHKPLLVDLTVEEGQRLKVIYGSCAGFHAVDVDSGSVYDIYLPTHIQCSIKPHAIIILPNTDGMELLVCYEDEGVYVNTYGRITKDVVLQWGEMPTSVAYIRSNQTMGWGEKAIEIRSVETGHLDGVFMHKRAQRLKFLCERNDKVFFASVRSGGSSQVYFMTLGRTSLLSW
Procedure: (specific activity and concentration as required). The reaction is initiated by the addition of the Mg/ATP mix. After incubation for 40 minutes at room temperature, the reaction is stopped by the addition of phosphoric acid to a concentration of 0.5%.

[3] = TNIK enzymatic assay, Table 1, read-out: IC50

TNIK, sequence (Q9UKE5 whole entry): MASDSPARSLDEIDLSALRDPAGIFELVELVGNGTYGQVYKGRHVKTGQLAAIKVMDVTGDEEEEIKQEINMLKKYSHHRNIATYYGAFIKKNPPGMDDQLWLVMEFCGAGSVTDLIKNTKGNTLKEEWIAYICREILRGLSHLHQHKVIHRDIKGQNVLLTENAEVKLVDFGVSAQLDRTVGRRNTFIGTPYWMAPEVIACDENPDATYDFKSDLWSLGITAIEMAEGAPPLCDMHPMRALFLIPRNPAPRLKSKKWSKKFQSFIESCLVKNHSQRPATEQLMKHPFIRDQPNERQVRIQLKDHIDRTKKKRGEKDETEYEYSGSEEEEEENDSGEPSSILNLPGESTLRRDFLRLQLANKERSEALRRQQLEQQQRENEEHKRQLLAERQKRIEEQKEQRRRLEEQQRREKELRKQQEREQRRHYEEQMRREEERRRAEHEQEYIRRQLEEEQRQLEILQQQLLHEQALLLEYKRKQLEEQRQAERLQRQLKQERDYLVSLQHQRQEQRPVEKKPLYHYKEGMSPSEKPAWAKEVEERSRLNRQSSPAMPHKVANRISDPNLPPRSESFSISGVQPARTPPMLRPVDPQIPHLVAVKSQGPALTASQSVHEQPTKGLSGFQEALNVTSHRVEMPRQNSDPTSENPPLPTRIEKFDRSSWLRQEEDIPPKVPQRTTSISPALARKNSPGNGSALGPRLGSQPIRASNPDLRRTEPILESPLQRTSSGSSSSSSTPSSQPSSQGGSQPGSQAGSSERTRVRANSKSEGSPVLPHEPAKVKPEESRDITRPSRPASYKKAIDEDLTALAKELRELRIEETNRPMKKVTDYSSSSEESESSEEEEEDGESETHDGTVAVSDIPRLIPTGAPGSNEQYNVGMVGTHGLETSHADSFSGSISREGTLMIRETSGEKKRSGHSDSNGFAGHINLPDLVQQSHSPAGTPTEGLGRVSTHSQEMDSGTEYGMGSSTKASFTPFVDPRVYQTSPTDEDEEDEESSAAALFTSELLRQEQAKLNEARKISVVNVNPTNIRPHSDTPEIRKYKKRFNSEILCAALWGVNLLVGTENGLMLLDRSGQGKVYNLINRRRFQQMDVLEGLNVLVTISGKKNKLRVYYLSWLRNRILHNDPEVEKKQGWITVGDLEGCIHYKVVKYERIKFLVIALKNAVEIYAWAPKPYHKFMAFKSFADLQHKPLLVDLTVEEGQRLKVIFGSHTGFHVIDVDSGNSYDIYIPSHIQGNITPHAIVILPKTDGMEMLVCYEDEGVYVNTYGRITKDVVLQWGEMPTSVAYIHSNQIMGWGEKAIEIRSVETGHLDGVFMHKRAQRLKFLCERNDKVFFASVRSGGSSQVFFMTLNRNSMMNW

O=C(Nc1cc[nH]c(=O)c1)c1ccc(-c2c(-c3ccc(F)cc3)ncn2C2COC[C@@H]2F)o1 (mixture of isomers) [Compound A-57, rac-5-(4-(4-fluorophenyl)-1-((4R)-4-fluorotetrahydrofuran-3-yl)-1H-imidazol-5-yl)-N-(2-oxo-1,2-dihydropyridin-4-yl)furan-2-carboxamide]
IC50 ([1]; read-out: TNIK_IC50): 1160 nM

O=C(Nc1ccc(F)cc1F)c1ccc(-c2c(-c3ccc(F)cc3)ncn2C2CCCC2)o1 [Compound 1, 5-(1-cyclopentyl-4-(4-fluorophenyl)-1H-imidazol-5-yl)-N-(2,4-difluorophenyl)furan-2-carboxamide]
IC50 [1, 3]: 30 nM
IC50 ([1]; read-out: TNIK_IC50): 30 nM
IC50 [2]: 97.6 nM

COc1ccc(OC)c(NC(=O)c2ccc(-c3c(-c4ccc(F)cc4)ncn3C3CCCC3)o2)c1 [Compound 2, 5-(1-cyclopentyl-4-(4-fluorophenyl)-1H-imidazol-5-yl)-N-(2,5-dimethoxyphenyl)furan-2-carboxamide]
IC50 [1, 3]: < 10 nM
IC50 ([1]; read-out: TNIK_IC50): 3.07 nM
IC50 [2]: 10.2 nM

O=C(Nc1cc(F)ccc1F)c1ccc(-c2c(-c3ccc(F)cc3)ncn2C2CCCC2)o1 [Compound 3, 5-(1-cyclopentyl-4-(4-fluorophenyl)-1H-imidazol-5-yl)-N-(2,5-difluorophenyl)furan-2-carboxamide]
IC50 [1, 3]: < 10 nM
IC50 ([1]; read-out: TNIK_IC50): 3.82 nM
IC50 [2]: 24.6 nM

COc1cccc(NC(=O)c2ccc(-c3c(-c4ccc(C)cc4)ncn3C3CCCCC3)o2)c1 [Compound 4, 5-(1-cyclohexyl-4-(p-tolyl)-1H-imidazol-5-yl)-N-(3-methoxyphenyl)furan-2-carboxamide]
IC50 [1, 3]: 9320 nM
IC50 ([1]; read-out: TNIK_IC50): 9320 nM
IC50 [2]: > 1000 nM

COc1ccc(NC(=O)c2ccc(-c3c(-c4ccc(C)cc4)ncn3C3CCCCC3)o2)cc1 [Compound 5, 5-(1-cyclohexyl-4-(p-tolyl)-1H-imidazol-5-yl)-N-(4-methoxyphenyl)furan-2-carboxamide]
IC50 [1, 3]: 2410 nM
IC50 ([1]; read-out: TNIK_IC50): 2410 nM
IC50 [2]: > 1000 nM

COc1cc(NC(=O)c2ccc(-c3c(-c4ccc(C)cc4)ncn3C3CCCCC3)o2)cc(OC)c1 [Compound 6, 5-(1-cyclohexyl-4-(p-tolyl)-1H-imidazol-5-yl)-N-(3,5-dimethoxyphenyl)furan-2-carboxamide]
IC50 [1, 3]: 9730 nM
IC50 ([1]; read-out: TNIK_IC50): 9730 nM
IC50 [2]: > 1000 nM

Cc1ccc(-c2ncn(C3CCCCC3)c2-c2ccc(C(=O)Nc3ccccc3F)o2)cc1 [Compound 7, 5-(1-cyclohexyl-4-(p-tolyl)-1H-imidazol-5-yl)-N-(2-fluorophenyl)furan-2-carboxamide]
IC50 [1, 3]: 1510 nM
IC50 ([1]; read-out: TNIK_IC50): 1510 nM
IC50 [2]: > 1000 nM

Cc1ccc(-c2ncn(C3CCCCC3)c2-c2ccc(C(=O)Nc3ccc(F)cc3)o2)cc1 [Compound 8, 5-(1-cyclohexyl-4-(p-tolyl)-1H-imidazol-5-yl)-N-(4-fluorophenyl)furan-2-carboxamide]
IC50 [1, 3]: 4450 nM
IC50 ([1]; read-out: TNIK_IC50): 4450 nM
IC50 [2]: > 1000 nM

CC(=O)c1ccc(NC(=O)c2ccc(-c3c(-c4ccc(F)cc4)ncn3C3CCCC3)o2)cc1 [Compound 9, N-(4-acetylphenyl)-5-(1-cyclopentyl-4-(4-fluorophenyl)-1H-imidazol-5-yl)furan-2-carboxamide]
IC50 [1, 3]: 11 nM
IC50 ([1]; read-out: TNIK_IC50): 11 nM
IC50 [2]: 36.8 nM

O=C(Nc1ccccc1C(F)(F)F)c1ccc(-c2c(-c3ccc(F)cc3)ncn2C2CCCC2)o1 [Compound 10, 5-(1-cyclopentyl-4-(4-fluorophenyl)-1H-imidazol-5-yl)-N-(2-(trifluoromethyl)phenyl)furan-2-carboxamide]
IC50 [1, 3]: 10 nM
IC50 ([1]; read-out: TNIK_IC50): < 10 nM
IC50 [2]: 30.4 nM

COc1ccc(NC(=O)c2ccc(-c3c(-c4ccc(F)cc4)ncn3C3CCCC3)o2)cc1OC [Compound 11, 5-(1-cyclopentyl-4-(4-fluorophenyl)-1H-imidazol-5-yl)-N-(3,4-dimethoxyphenyl)furan-2-carboxamide]
IC50 [1, 3]: 42 nM
IC50 ([1]; read-out: TNIK_IC50): 42 nM
IC50 [2]: 93.2 nM

COc1cccc(NC(=O)c2ccc(-c3c(-c4ccc(F)cc4)ncn3C3CCCC3)o2)c1 [Compound 12, 5-(1-cyclopentyl-4-(4-fluorophenyl)-1H-imidazol-5-yl)-N-(3-methoxyphenyl)furan-2-carboxamide]
IC50 [1, 3]: 101 nM
IC50 ([1]; read-out: TNIK_IC50): 101 nM
IC50 [2]: 141 nM

O=C(Nc1ccccc1Br)c1ccc(-c2c(-c3ccc(F)cc3)ncn2C2CCCC2)o1 [Compound 13, N-(2-bromophenyl)-5-(1-cyclopentyl-4-(4-fluorophenyl)-1H-imidazol-5-yl)furan-2-carboxamide]
IC50 [1, 3]: < 10 nM
IC50 ([1]; read-out: TNIK_IC50): 12 nM
IC50 [2]: 15.2 nM

O=C(Nc1ccccc1Cl)c1ccc(-c2c(-c3ccc(F)cc3)ncn2C2CCCC2)o1 [Compound 14, N-(2-chlorophenyl)-5-(1-cyclopentyl-4-(4-fluorophenyl)-1H-imidazol-5-yl)furan-2-carboxamide]
IC50 [1, 3]: < 10 nM
IC50 ([1]; read-out: TNIK_IC50): 15.2 nM
IC50 [2]: 10.9 nM

O=C(Nc1ccc(Cl)cc1)c1ccc(-c2c(-c3ccc(F)cc3)ncn2C2CCCC2)o1 [Compound 15, N-(4-chlorophenyl)-5-(1-cyclopentyl-4-(4-fluorophenyl)-1H-imidazol-5-yl)furan-2-carboxamide]
IC50 [1, 3]: 101 nM
IC50 ([1]; read-out: TNIK_IC50): 101 nM
IC50 [2]: 116 nM

Cc1cc(Cl)ccc1NC(=O)c1ccc(-c2c(-c3ccc(F)cc3)ncn2C2CCCC2)o1 [Compound 16, N-(4-chloro-2-methylphenyl)-5-(1-cyclopentyl-4-(4-fluorophenyl)-1H-imidazol-5-yl)furan-2-carboxamide]
IC50 [1, 3]: 38 nM
IC50 ([1]; read-out: TNIK_IC50): 38 nM
IC50 [2]: 101 nM

Cc1ccc(Cl)cc1NC(=O)c1ccc(-c2c(-c3ccc(F)cc3)ncn2C2CCCC2)o1 [Compound 17, N-(5-chloro-2-methylphenyl)-5-(1-cyclopentyl-4-(4-fluorophenyl)-1H-imidazol-5-yl)furan-2-carboxamide]
IC50 [1, 3]: 46 nM
IC50 ([1]; read-out: TNIK_IC50): 46 nM
IC50 [2]: 106 nM

COc1ccc(NC(=O)c2ccc(-c3c(-c4ccc(F)cc4)ncn3C3CCCC3)o2)c(OC)c1 [Compound 18, 5-(1-cyclopentyl-4-(4-fluorophenyl)-1H-imidazol-5-yl)-N-(2,4-dimethoxyphenyl)furan-2-carboxamide]
IC50 [1, 3]: < 10 nM
IC50 ([1]; read-out: TNIK_IC50): 2.33 nM
IC50 [2]: 4.05 nM

COc1cc(NC(=O)c2ccc(-c3c(-c4ccc(F)cc4)ncn3C3CCCC3)o2)cc(OC)c1 [Compound 19, 5-(1-cyclopentyl-4-(4-fluorophenyl)-1H-imidazol-5-yl)-N-(3,5-dimethoxyphenyl)furan-2-carboxamide]
IC50 [1, 3]: 231 nM
IC50 ([1]; read-out: TNIK_IC50): 231 nM
IC50 [2]: 204 nM

Cc1cccc(NC(=O)c2ccc(-c3c(-c4ccc(F)cc4)ncn3C3CCCC3)o2)c1C [Compound 20, 5-(1-cyclopentyl-4-(4-fluorophenyl)-1H-imidazol-5-yl)-N-(2,3-dimethylphenyl)furan-2-carboxamide]
IC50 [1, 3]: 136 nM
IC50 ([1]; read-out: TNIK_IC50): 136 nM
IC50 [2]: 129 nM

Cc1cccc(C)c1NC(=O)c1ccc(-c2c(-c3ccc(F)cc3)ncn2C2CCCC2)o1 [Compound 21, 5-(1-cyclopentyl-4-(4-fluorophenyl)-1H-imidazol-5-yl)-N-(2,6-dimethylphenyl)furan-2-carboxamide]
IC50 [1, 3]: 214 nM
IC50 ([1]; read-out: TNIK_IC50): 214 nM
IC50 [2]: > 1000 nM

CCOC(=O)c1cccc(NC(=O)c2ccc(-c3c(-c4ccc(F)cc4)ncn3C3CCCC3)o2)c1 [Compound 22, ethyl 3-(5-(1-cyclopentyl-4-(4-fluorophenyl)-1H-imidazol-5-yl)furan-2-carboxamido)benzoate]
IC50 [1, 3]: 483 nM
IC50 ([1]; read-out: TNIK_IC50): 483 nM
IC50 [2]: > 1000 nM

CCc1ccc(NC(=O)c2ccc(-c3c(-c4ccc(F)cc4)ncn3C3CCCC3)o2)cc1 [Compound 23, 5-(1-cyclopentyl-4-(4-fluorophenyl)-1H-imidazol-5-yl)-N-(4-ethylphenyl)furan-2-carboxamide]
IC50 [1, 3]: 55 nM
IC50 ([1]; read-out: TNIK_IC50): 55 nM
IC50 [2]: 102 nM

O=C(Nc1cccc(F)c1)c1ccc(-c2c(-c3ccc(F)cc3)ncn2C2CCCC2)o1 [Compound 25, 5-(1-cyclopentyl-4-(4-fluorophenyl)-1H-imidazol-5-yl)-N-(3-fluorophenyl)furan-2-carboxamide]
IC50 [1, 3]: 59 nM
IC50 ([1]; read-out: TNIK_IC50): 59 nM
IC50 [2]: 83.4 nM

O=C(Nc1ccc(F)cc1)c1ccc(-c2c(-c3ccc(F)cc3)ncn2C2CCCC2)o1 [Compound 26, 5-(1-cyclopentyl-4-(4-fluorophenyl)-1H-imidazol-5-yl)-N-(4-fluorophenyl)furan-2-carboxamide]
IC50 [1, 3]: 55 nM
IC50 ([1]; read-out: TNIK_IC50): 55 nM
IC50 [2]: 97.9 nM

COC(=O)c1ccccc1NC(=O)c1ccc(-c2c(-c3ccc(F)cc3)ncn2C2CCCC2)o1 [Compound 27, methyl 2-(5-(1-cyclopentyl-4-(4-fluorophenyl)-1H-imidazol-5-yl)furan-2-carboxamido)benzoate]
IC50 [1, 3]: < 10 nM
IC50 ([1]; read-out: TNIK_IC50): 5.11 nM
IC50 [2]: 11.5 nM

CCOc1ccc(NC(=O)c2ccc(-c3c(-c4ccc(F)cc4)ncn3C3CCCC3)o2)cc1 [Compound 28, 5-(1-cyclopentyl-4-(4-fluorophenyl)-1H-imidazol-5-yl)-N-(4-ethoxyphenyl)furan-2-carboxamide]
IC50 [1, 3]: 37 nM
IC50 ([1]; read-out: TNIK_IC50): 37 nM
IC50 [2]: 63.7 nM

Cc1ccccc1NC(=O)c1ccc(-c2c(-c3ccc(F)cc3)ncn2C2CCCC2)o1 [Compound 29, 5-(1-cyclopentyl-4-(4-fluorophenyl)-1H-imidazol-5-yl)-N-(o-tolyl)furan-2-carboxamide]
IC50 [1, 3]: 62 nM
IC50 ([1]; read-out: TNIK_IC50): 62 nM
IC50 [2]: 115 nM

Cc1ccc(NC(=O)c2ccc(-c3c(-c4ccc(F)cc4)ncn3C3CCCC3)o2)cc1Cl [Compound 30, N-(3-chloro-4-methylphenyl)-5-(1-cyclopentyl-4-(4-fluorophenyl)-1H-imidazol-5-yl)furan-2-carboxamide]
IC50 [1, 3]: 95 nM
IC50 ([1]; read-out: TNIK_IC50): 95 nM
IC50 [2]: 888 nM
